Test results as given in patent US7056275B2, “Radiotherapy” (Algeta A/S, priority 2000, dated 2006).
Like-named read-outs stand apart in the source and are kept apart here.

Legend:
[1] = for Tissue distribution, Blood / Tissue distribution, Brain / Tissue distribution, Femur / Tissue distribution, Heart / Tissue distribution, Kidney / Tissue distribution, L.I. / Tissue distribution, Liver / Tissue distribution, Lung / Tissue distribution, Muscle / Tissue distribution, Rib / Tissue distribution, S.I. / Tissue distribution, Skull / Tissue distribution, Spleen / Tissue distribution, Stomach: +/- SD; for Femur/Blood ratio / Femur/Kidneys ratio / Femur/Liver ratio / Femur/Spleen ratio: Balb C mice; for femur to blood and femur to tissue ratios compared to cationic radium-223 (in words): chelates at 4 hours vs radium-223 at 6 hours after injection, for some organs
Protocol: The biodistribution of thorium and actinium bound to polyphosphonate was studied in mice.
Balb/C mice with a bodyweight in the range of 11–16 g were used in the biodistribution experiments. The compounds were administered by intravenous injection of 100–200 μl of the preparation for each animal in paired label arrangement. The compounds ^228Ac-DOTMP, ^227Th-DOTMP, ^227Th-DTMP and ^227Th-acetate/MES were investigated. Approximately 5 kBq of ^[…] and 5 kBq of ^228Ac was injected. Animals were sacrificed by cervical dislocation. The tissue distribution was determined on 3 mice for each pair of compounds. The tissue distribution was determined after 4 hours for ^228Ac-DOTMP, ^227Th-DOTMP, ^227Th-DTMP and ^227Th-acetate.
In general, radioactivity in the tissue samples was measured by using a NaI (Tl) well-type detector and by liquid scintillation counting (Beckmann LS6500, Beckmann, Fullerton, Calif., USA). ^227Th was measured by using a HPGe detector (Canberra, Conn, USA) and also by liquid scintillation counting after dissolution of tissue samples and allowing decay of ^228Ac. ^228Ac was measured by the HPGe detector and the NaI(Tl) detector.
Samples of the radioactive preparations of the nuclides were used as references to account for physical decay and radiation crossover in the detection procedures.

[2] = cationic species, mice, published data; cited from earlier work
[3] = 4 hours after injection, i.v., Balb/C mice
[4] = bone seeking chelates, 4 hours after injection
[5] = cationic radium-223, 6 hours after injection

O=P([O-])(O)CN1CCN(CP(=O)([O-])O)CCN(CP(=O)(O)O)CCN(CP(=O)([O-])O)CC1.[228Ac+3] [Ac-228 DOTMP]
Tissue distribution, Blood [1, 3]: <0.1 % I.D./g
Tissue distribution, Brain [1, 3]: <0.1 % I.D./g
Tissue distribution, Femur [1, 3]: 20.67 ± 2.23 % I.D./g
Tissue distribution, Heart [1, 3]: <0.1 % I.D./g
Tissue distribution, Kidney [1, 3]: 2.7 ± 2.4 % I.D./g
Tissue distribution, L.I. [1, 3]: 0.20 ± 0.11 % I.D./g
Tissue distribution, Liver [1, 3]: 1.26 ± 0.9 % I.D./g
Tissue distribution, Lung [1, 3]: 0.20 ± 0.10 % I.D./g
Tissue distribution, Muscle [1, 3]: 0.30 ± 0.11 % I.D./g
Tissue distribution, Rib [1, 3]: 10.5 ± 3.5 % I.D./g
Tissue distribution, S.I. [1, 3]: 0.14 ± 0.07 % I.D./g
Tissue distribution, Skull [1, 3]: 10.7 ± 2.7 % I.D./g
Tissue distribution, Spleen [1, 3]: 0.51 ± 0.10 % I.D./g
Femur/Blood ratio [1, 4]: >196
Femur/Kidneys ratio [1, 4]: 7.7
Femur/Liver ratio [1, 4]: 16.4
Femur/Spleen ratio [1, 4]: 41.3
femur to blood and femur to tissue ratios compared to cationic radium-223 (in words) [1]: better

O=P([O-])(O)CN1CCN(CP(=O)([O-])O)CCN(CP(=O)([O-])O)CCN(CP(=O)([O-])O)CC1.[227Th+4] [Th-227 DOTMP]
Tissue distribution, Blood [1, 3]: <0.1 % I.D./g
Tissue distribution, Brain [1, 3]: <0.1 % I.D./g
Tissue distribution, Femur [1, 3]: 20.55 ± 2.21 % I.D./g
Tissue distribution, Heart [1, 3]: <0.1 % I.D./g
Tissue distribution, Kidney [1, 3]: 3.43 ± 1.70 % I.D./g
Tissue distribution, L.I. [1, 3]: 0.19 ± 0.10 % I.D./g
Tissue distribution, Liver [1, 3]: 0.39 ± 0.19 % I.D./g
Tissue distribution, Lung [1, 3]: 0.18 ± 0.09 % I.D./g
Tissue distribution, Muscle [1, 3]: 0.29 ± 0.17 % I.D./g
Tissue distribution, Rib [1, 3]: 11.06 ± 3.81 % I.D./g
Tissue distribution, S.I. [1, 3]: 0.14 ± 0.08 % I.D./g
Tissue distribution, Skull [1, 3]: 10.8 ± 2.94 % I.D./g
Tissue distribution, Spleen [1, 3]: 0.51 ± 0.14 % I.D./g
Tissue distribution, Stomach [1, 3]: 0.15 ± 0.05 % I.D./g
Tissue distribution, Urine ([1]; 4 hours after injection, i.v., Balb/C mice, n = 1): 21.1 % I.D./g
Femur/Blood ratio [1, 4]: >196
Femur/Kidneys ratio [1, 4]: 6.0
Femur/Liver ratio [1, 4]: 52.7
Femur/Spleen ratio [1, 4]: 40.3
femur to blood and femur to tissue ratios compared to cationic radium-223 (in words) [1]: better

O=P([O-])(O)CN(CCN(CP(=O)([O-])O)CP(=O)([O-])O)CCN(CP(=O)([O-])O)CP(=O)(O)O.[227Th+4] [Th-227 DTMP]
Tissue distribution, Blood [1, 3]: <0.1 % I.D./g
Tissue distribution, Brain [1, 3]: <0.1 % I.D./g
Tissue distribution, Femur [1, 3]: 19.58 ± 3.58 % I.D./g
Tissue distribution, Heart [1, 3]: <0.1 % I.D./g
Tissue distribution, Kidney [1, 3]: 1.38 ± 0.54 % I.D./g
Tissue distribution, L.I. [1, 3]: 0.15 ± 0.03 % I.D./g
Tissue distribution, Liver [1, 3]: 0.40 ± 0.43 % I.D./g
Tissue distribution, Lung [1, 3]: 0.12 ± 0.04 % I.D./g
Tissue distribution, Muscle [1, 3]: 0.63 ± 0.33 % I.D./g
Tissue distribution, Rib [1, 3]: 8.83 ± 5.06 % I.D./g
Tissue distribution, S.I. [1, 3]: 0.56 ± 0.63 % I.D./g
Tissue distribution, Skull [1, 3]: 12.3 ± 3.14 % I.D./g
Tissue distribution, Spleen [1, 3]: 0.13 ± 0.04 % I.D./g
Tissue distribution, Stomach [1, 3]: 0.70 ± 0.80 % I.D./g
Femur/Blood ratio [1, 4]: >196
Femur/Kidneys ratio [1, 4]: 14.2
Femur/Liver ratio [1, 4]: 49
Femur/Spleen ratio [1, 4]: 151
femur to blood and femur to tissue ratios compared to cationic radium-223 (in words) [1]: better

[223Ra] [^223Ra, reference compound]
Femur/Blood ratio [1, 5]: 129
Femur/Kidneys ratio [1, 5]: 6.4
Femur/Liver ratio [1, 5]: 29.1
Femur/Spleen ratio [1, 5]: 6.4

CC(=O)[O-].CC(=O)[O-].CC(=O)[O-].CC(=O)[O-].[227Th+4] [^227Th-acetate, reference compound]
Tissue distribution, Blood [1, 3]: 1.2 ± 0.4 % I.D./g
Tissue distribution, Brain [1, 3]: <0.1 % I.D./g
Tissue distribution, Femur [1, 3]: 23.4 ± 6.9 % I.D./g
Tissue distribution, Heart [1, 3]: 2.6 ± 0.2 % I.D./g
Tissue distribution, Kidney [1, 3]: 7.7 ± 0.7 % I.D./g
Tissue distribution, L.I. [1, 3]: 1.7 ± 0.1 % I.D./g
Tissue distribution, Liver [1, 3]: 56.5 ± 9.4 % I.D./g
Tissue distribution, Lung [1, 3]: 2.6 ± 0.4 % I.D./g
Tissue distribution, Muscle [1, 3]: 1.1 % I.D./g
Tissue distribution, Rib [1, 3]: 14.6 ± 4.4 % I.D./g
Tissue distribution, S.I. [1, 3]: 2.3 ± 0.1 % I.D./g
Tissue distribution, Skull [1, 3]: 18.9 ± 7.6 % I.D./g
Tissue distribution, Spleen [1, 3]: 14.2 ± 2.8 % I.D./g
Tissue distribution, Stomach [1, 3]: 4.6 ± 1.0 % I.D./g
bone uptake (in words) ([1]; 4 hours after injection, mice): high and similar to the observed values with the bone-seeking polyphosphonate complexing agents
suitability for in vivo bone targeting given affinity for soft tissues, e.g. liver and spleen (in words) ([1]; 4 hours after injection, mice): unsuitable for in vivo bone targeting

CC(=O)[O-].CC(=O)[O-].CC(=O)[O-].[Ac+3] [cationic actinium]
selective bone uptake relative to soft tissue uptake (in words) [2]: does not show sufficient selective bone uptake relative to soft tissue uptake
